According to US20150038591A1, “Compounds, compositions and methods for the treatment of tauopathies” (PROTEOTECH INC., priority 2002, published 2015):

Key:
Tau aggregates = Tau aggregates (Homo sapiens, UniProt P10636); assay: Thioflavin S fluorometry, dissolution/disruption/inhibition of Tau aggregates; format: biochemical
Procedure: In contrast to quantitation of Aβ fibrils, where ThioT is used, it was shown for tau aggregates that ThioS is more reproducible and independent of solvent characteristics. […] (Friedhoff, P et al. (1998) Biochem 10223-10230)
The Thio S assay involves the dilution of 500 μM ThioS stock 1:1 with PBS. Pipette 25 μl of this into the wells of a 96-well assay plate. Add 50 μl samples and 50 μl PBS and mix well. Read plates immediately on a fluorometer with the excitation set at 444 nm and emission set at 485 nm. […] Log transformed values are analyzed using “Nonlinear regression (curve fit) log(inhibitor) vs. normalized response—Variable slope” analysis.

aggregated Tau-441 = target: T1, aggregated Tau-441 (Homo sapiens, UniProt P10636); assay: Thioflavin T fluorometry, dissolution/disruption/inhibition of preformed Tau aggregates; format: biochemical; details: 3 days at 37° C.
T1 construct: purchased rPeptide
Procedure: Thioflavin T binds specifically to aggregated Tau or Tau tangles, and this binding produces a fluorescence enhancement at 485 nm that is directly proportional to the amount of aggregated Tau. The higher the fluorescence, the greater the amount of aggregated Tau.
In this study, Tau-441 or TauRD was pre-fibrillized or aggregated by combining with Heparin (SIGMA) at 1:1 wt/wt, then incubation at 37° C. and shaking at 1400 rpm for 8 days. […] Following 3-days of co-incubation, 50 μl of each incubation mixture was transferred into a 96-well microtiter plate containing 150 μl of distilled water and 50 μl of a Thioflavin T solution (i.e. […] Thioflavin T in 250 mM phosphate buffer, pH 6.8). The fluorescence was read at 485 nm (444 nm excitation wavelength) using an ELISA plate fluorometer after subtraction with buffer alone or compound alone, as blank.

[1] = Tau:test compound wt/wt ratio 1:0.001
[2] = Tau:test compound wt/wt ratio 1:0.01
[3] = Tau:test compound wt/wt ratio 1:0.1
[4] = Tau:test compound wt/wt ratio 1:1

T1 sequence (P10636 1-441 isoform P10636-8): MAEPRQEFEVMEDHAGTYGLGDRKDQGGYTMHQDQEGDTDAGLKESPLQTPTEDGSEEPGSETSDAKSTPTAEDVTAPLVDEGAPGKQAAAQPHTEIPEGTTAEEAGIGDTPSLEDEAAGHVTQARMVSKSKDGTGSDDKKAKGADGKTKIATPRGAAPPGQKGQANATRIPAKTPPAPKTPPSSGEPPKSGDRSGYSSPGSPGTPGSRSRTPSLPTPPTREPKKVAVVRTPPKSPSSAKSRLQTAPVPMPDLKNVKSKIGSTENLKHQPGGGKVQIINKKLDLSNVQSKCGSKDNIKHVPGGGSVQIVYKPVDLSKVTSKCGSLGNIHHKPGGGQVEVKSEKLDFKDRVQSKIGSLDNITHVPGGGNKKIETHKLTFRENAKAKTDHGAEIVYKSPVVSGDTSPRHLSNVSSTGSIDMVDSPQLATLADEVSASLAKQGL
Tau aggregates, sequence (P10636 1-441 isoform P10636-8): as above

Row | SMILES | IC50 (Tau aggregates) [µM] | % dissolution/disruption/inhibition Tau (result ± S.D.) (aggregated Tau-441; [1]) [%] | % dissolution/disruption/inhibition Tau (result ± S.D.) (aggregated Tau-441; [2]) [%] | % dissolution/disruption/inhibition Tau (result ± S.D.) (aggregated Tau-441; [3]) [%] | % dissolution/disruption/inhibition Tau (result ± S.D.) (aggregated Tau-441; [4]) [%]
1 | Oc1ccc(Cc2ccc(O)c(O)c2)cc1O [Compound 3, 3,4,3′,4′-Tetrahydroxydiphenylmethane] | 32.4 | 17.0 ± 2.49 | 54.1 ± 2.62 | 89.2 ± 1.96 | 91.2 ± 2.59
2 | O=C(NCCc1ccc(O)c(O)c1)Nc1ccc(O)c(O)c1 [Compound 78, 1-(3,4-Dihydroxyphenyl)-3-(3,4-dihydroxyphenethyl)urea] | 5.26 | – | – | – | –
3 | Oc1ccc(CCc2ccc(O)c(O)c2)cc1O [Compound 4, 1,2-bis(3,4-dihydroxyphenyl)ethane] | 10.8 | 19.3 ± 0.00 | 68.0 ± 1.71 | 92.8 ± 2.59 | 93.5 ± 4.42
4 | O=C(Nc1ccc(O)c(O)c1)Nc1ccc(O)c(O)c1 [Compound 76, 1,3-Bis(3,4-dihydroxyphenyl)urea] | 3.95 | 17.4 ± 4.88 | 54.1 ± 2.62 | 91.2 ± 0.56 | 94.1 ± 2.99
5 | O=C(Nc1ccc(O)c(O)c1)C(=O)Nc1ccc(O)c(O)c1 [Compound 63, oxalic acid bis(3,4-dihydroxyanilide)] | – | 11.8 ± 8.06 | 16.5 ± 2.49 | 34.7 ± 1.69 | 77.8 ± 1.13
